Results from ChEMBL document CHEMBL5518250, “Targeting KRAS Diversity: Covalent Modulation of G12X and Beyond in Cancer Therapy” (J Med Chem, 2024).
pKi: −log10 of the molar value.

Assay: Binding affinity to human recombinant His-tagged KRAS G12C/C118S mutant (1 to 169 residues) expressed in Escherichia coli assessed as inhibition constant by fluorescence based analysis

## C=CC(=O)N1CCN(c2nc(=O)n(-c3c(C)ccnc3C(C)C)c3nc(-c4c(O)cccc4F)c(F)cc23)[C@@H](C)C1 [SOTORASIB]
  pKi: 4.07
